Experimental data taken from patent US8680094B2, “1, 4-benzoxazine compounds and derivatives thereof as therapeutic drugs for the treatment of neurodegenerative conditions” (Board of Regents, The University of Texas System, priority 2008, dated 2014).

Legend:
Test in all cases: In vitro kinase activity
Format in all cases: biochemical
Conditions in all cases: percentage of control assays without compound, mean of duplicate
MEKK1 = MEKK1 (Homo sapiens, UniProt Q13233)
Description: (§1) To better understand the mechanism of action of the compounds of the present invention, but in no way a limitation; the effects of HSB-13 and ASK-2a on 20 different kinases were examined in vitro. At 500 nM concentration, ASK-2a inhibited the kinase activities of GSK3α, GSK3β, p38α, p38β, JNK3, MLK3, and B-Raf substantially. […] As described above, ASK-2a protects cerebellar granule neurons against LK-induced death but is ineffective against HCA-induced toxicity of HT-22 cells. In contrast, HSB-13 is protective in both paradigms. […] Previous studies have established that CDK inhibitors can protect neurons against a number of different apoptotic stimuli.
(§2) The activity of each kinase was measured in vitro in the presence either 100 nM or 500 nM ASK-2a. Kinase activity is expressed as a percentage of that in control assays (without ASK-2a). The values are mean of assays performed in duplicate. Substantial inhibition of kinase activity (>20%) is in bold type.
(§3) Table 3: Effect of HSB-13 at 500 nM on 20 different kinases measured in vitro. Kinase activity is expressed as a percentage of that in control assays (without HSB-13). The values are mean of assays performed in duplicate. Substantial inhibition of kinase activity (>20%) is in bold type.

CDK6/Cyclin D3 = CDK6/Cyclin D3 (Homo sapiens, UniProt Q00534)
Description: as §1, §2, §3

DAPK1 = DAPK1 (Homo sapiens, UniProt P53355)
Description: as §1, §2, §3

JNK2 = JNK2 (Homo sapiens, UniProt P45984)
Description: as §1, §2, §3

CDK2/Cyclin A1 = CDK2/Cyclin A1 (Homo sapiens, UniProt P24941)
Description: as §1, §2, §3

GSK3α = GSK3α (Homo sapiens, UniProt P49840)
Description: as §1, §2, §3

CDK1/Cylcin A1 = CDK1/Cylcin A1 (Homo sapiens, UniProt P06493)
Description: as §1, §2, §3

ASK1 = target: T1, ASK1 (Homo sapiens, UniProt Q99683)
T1 sequence (Q99683 1-1374): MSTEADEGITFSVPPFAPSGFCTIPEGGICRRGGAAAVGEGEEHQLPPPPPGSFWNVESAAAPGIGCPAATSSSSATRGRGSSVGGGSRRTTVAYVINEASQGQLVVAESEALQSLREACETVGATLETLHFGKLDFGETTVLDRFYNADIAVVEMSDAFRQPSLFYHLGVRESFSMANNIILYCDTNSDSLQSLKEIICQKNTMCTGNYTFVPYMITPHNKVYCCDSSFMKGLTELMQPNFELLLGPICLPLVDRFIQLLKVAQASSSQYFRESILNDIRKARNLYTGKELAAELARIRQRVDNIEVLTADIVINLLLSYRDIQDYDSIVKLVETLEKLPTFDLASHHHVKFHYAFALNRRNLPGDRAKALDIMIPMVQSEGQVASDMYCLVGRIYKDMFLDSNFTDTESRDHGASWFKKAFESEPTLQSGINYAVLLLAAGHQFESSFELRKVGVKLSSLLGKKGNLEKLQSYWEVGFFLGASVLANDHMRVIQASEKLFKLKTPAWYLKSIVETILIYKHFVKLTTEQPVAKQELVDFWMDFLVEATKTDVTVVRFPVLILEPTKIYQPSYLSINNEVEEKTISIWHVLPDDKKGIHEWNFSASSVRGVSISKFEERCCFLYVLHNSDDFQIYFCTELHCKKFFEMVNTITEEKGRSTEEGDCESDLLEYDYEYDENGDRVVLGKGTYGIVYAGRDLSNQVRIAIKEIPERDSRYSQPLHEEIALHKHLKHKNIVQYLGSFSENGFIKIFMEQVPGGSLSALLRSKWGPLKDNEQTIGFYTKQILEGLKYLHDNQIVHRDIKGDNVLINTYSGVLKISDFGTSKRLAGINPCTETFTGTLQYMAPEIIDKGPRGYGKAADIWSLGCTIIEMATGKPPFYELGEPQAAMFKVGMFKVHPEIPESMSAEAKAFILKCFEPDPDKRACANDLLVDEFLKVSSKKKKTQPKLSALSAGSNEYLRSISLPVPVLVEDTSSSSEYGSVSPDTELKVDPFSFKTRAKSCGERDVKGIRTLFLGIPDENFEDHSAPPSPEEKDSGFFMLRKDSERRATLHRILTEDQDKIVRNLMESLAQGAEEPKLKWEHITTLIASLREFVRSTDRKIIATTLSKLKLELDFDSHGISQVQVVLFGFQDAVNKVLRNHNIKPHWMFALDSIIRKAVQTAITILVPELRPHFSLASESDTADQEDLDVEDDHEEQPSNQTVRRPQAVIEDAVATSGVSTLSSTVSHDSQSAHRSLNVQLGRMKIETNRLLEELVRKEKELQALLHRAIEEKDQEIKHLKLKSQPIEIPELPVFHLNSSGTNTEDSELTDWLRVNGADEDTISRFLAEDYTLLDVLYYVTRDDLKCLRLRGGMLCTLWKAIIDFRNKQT
Description: as §1, §2, §3

CDK5/p25 = CDK5/p25 (Homo sapiens, UniProt Q00535)
Description: as §1, §2, §3

p38β = p38β (Homo sapiens, UniProt Q15759)
Description: as §1, §2, §3

ROCK1 = ROCK1 (Homo sapiens, UniProt Q13464)
Description: as §1, §2, §3

[1] = 100 nM, listed as ASK2a, 0.1 µM

Sequence of DAPK1 (P53355 whole entry, species assumed): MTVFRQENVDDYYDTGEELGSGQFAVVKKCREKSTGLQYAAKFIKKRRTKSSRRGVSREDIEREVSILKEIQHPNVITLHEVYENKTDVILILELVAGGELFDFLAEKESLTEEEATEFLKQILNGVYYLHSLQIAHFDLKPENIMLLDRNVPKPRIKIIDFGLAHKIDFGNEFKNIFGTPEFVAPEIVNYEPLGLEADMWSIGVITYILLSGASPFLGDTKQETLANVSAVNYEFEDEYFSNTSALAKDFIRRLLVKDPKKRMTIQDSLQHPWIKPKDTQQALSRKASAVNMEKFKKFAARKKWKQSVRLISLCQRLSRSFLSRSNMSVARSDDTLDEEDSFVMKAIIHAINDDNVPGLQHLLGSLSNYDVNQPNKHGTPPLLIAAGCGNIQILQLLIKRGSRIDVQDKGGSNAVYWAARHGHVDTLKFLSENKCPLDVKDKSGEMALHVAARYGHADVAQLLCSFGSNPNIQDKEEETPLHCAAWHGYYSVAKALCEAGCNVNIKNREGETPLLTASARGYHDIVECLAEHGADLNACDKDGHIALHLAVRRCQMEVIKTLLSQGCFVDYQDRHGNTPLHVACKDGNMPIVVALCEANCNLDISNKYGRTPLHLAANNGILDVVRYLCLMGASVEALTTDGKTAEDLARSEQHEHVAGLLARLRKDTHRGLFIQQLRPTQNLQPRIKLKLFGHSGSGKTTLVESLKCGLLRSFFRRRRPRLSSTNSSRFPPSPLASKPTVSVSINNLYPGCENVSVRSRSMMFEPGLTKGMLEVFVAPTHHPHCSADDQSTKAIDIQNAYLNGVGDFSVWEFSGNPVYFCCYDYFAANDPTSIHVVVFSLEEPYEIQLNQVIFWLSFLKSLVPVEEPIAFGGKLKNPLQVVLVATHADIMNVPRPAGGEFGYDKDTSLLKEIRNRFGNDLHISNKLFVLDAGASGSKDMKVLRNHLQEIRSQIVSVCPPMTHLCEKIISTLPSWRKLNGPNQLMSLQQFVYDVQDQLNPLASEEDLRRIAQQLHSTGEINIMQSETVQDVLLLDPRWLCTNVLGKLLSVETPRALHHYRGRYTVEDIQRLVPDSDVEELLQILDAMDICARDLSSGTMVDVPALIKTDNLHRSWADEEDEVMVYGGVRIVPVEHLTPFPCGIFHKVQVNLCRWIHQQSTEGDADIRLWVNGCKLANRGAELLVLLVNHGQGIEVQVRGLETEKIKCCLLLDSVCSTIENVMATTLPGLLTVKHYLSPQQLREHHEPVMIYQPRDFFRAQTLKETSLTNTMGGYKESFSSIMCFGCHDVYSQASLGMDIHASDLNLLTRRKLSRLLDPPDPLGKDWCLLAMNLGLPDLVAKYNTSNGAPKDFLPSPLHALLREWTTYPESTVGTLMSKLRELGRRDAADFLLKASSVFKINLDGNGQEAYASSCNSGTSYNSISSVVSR
Sequence of CDK5/p25 (Q00535 whole entry, species assumed): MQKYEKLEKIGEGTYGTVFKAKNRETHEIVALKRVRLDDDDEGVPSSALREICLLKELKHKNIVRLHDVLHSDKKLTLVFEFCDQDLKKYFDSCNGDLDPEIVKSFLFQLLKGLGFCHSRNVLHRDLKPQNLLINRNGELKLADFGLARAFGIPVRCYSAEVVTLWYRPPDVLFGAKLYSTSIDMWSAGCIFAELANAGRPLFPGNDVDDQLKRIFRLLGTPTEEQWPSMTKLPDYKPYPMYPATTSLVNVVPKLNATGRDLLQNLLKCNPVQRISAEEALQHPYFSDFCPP
Sequence of CDK5/p25 (Q15078 99-307 partner limits assumed, species assumed): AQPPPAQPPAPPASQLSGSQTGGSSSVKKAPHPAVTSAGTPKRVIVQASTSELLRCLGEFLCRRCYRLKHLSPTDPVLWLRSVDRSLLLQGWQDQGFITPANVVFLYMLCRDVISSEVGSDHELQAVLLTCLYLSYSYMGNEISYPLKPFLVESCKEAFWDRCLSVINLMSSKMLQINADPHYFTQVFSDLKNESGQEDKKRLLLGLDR
Sequence of MEKK1 (Q13233 whole entry, species assumed): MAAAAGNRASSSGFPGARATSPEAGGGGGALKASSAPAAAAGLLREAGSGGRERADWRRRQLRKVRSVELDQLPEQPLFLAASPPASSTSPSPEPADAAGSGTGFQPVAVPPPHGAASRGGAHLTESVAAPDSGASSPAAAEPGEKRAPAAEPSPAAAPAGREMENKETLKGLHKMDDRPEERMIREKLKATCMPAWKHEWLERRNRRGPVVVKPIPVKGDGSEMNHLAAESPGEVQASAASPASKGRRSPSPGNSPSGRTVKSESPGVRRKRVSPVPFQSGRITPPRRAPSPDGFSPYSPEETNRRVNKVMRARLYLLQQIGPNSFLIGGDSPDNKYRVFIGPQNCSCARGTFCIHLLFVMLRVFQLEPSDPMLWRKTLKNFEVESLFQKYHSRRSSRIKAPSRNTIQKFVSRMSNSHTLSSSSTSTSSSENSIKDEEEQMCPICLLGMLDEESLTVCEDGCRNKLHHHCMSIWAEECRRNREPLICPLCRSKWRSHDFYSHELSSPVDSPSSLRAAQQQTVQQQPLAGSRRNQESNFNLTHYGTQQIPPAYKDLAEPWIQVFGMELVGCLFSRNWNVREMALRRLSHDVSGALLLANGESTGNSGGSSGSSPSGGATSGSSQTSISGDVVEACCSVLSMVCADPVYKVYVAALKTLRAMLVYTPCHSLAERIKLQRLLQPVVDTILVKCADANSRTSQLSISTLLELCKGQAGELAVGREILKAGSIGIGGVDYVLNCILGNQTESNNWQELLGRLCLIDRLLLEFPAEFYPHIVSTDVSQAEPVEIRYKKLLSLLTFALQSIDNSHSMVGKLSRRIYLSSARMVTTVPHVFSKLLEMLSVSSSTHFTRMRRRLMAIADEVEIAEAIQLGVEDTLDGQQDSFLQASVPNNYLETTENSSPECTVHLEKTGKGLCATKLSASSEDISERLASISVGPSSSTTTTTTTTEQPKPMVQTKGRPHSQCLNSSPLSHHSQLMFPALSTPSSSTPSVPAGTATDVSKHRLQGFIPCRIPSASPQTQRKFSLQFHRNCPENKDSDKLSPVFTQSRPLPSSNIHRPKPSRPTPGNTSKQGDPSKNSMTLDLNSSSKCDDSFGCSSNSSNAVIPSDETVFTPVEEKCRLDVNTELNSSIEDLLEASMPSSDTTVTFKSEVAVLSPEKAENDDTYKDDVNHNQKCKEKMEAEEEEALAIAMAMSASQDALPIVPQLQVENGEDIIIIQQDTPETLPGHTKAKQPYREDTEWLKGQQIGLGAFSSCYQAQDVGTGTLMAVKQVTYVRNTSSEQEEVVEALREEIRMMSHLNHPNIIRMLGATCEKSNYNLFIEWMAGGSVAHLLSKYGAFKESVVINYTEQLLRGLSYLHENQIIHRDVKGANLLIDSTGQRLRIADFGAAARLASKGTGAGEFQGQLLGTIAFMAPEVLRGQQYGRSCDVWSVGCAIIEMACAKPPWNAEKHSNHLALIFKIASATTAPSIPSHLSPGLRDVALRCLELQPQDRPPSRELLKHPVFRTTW
Sequence of ROCK1 (Q13464 whole entry, species assumed): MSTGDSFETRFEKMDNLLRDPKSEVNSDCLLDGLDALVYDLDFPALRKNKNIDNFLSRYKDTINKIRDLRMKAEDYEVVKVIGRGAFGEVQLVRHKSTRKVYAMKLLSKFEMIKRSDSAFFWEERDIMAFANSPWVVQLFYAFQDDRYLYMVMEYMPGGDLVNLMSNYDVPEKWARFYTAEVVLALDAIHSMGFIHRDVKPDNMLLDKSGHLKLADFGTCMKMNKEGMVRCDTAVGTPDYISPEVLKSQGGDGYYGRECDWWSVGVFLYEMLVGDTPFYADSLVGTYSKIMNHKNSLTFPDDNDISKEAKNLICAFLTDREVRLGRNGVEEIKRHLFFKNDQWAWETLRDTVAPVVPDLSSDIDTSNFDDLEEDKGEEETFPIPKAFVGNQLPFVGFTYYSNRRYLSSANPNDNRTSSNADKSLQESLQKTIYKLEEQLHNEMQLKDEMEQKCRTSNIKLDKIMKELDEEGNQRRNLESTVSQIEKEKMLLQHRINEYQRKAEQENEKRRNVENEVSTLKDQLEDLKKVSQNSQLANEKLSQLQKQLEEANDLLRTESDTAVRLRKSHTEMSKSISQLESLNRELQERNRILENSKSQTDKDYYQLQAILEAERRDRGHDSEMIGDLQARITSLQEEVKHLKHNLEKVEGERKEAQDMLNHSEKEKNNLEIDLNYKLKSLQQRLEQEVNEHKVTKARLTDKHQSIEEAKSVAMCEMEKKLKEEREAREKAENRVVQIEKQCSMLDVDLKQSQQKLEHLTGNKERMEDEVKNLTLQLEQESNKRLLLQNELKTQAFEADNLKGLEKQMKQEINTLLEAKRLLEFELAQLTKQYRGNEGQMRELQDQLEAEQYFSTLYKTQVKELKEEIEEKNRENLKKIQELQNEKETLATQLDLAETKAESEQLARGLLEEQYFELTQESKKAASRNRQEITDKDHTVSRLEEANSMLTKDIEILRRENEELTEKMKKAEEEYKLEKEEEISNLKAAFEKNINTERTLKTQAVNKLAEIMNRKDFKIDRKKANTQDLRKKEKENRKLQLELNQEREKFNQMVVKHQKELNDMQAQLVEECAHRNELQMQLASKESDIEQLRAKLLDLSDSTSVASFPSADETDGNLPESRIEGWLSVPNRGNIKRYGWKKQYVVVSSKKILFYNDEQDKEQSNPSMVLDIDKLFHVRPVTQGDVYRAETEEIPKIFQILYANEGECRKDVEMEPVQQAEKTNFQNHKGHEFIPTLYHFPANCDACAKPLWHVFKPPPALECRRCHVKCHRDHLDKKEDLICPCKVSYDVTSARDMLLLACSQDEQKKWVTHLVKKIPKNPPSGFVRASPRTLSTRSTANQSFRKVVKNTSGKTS

SMILES | % ACTIVITY (MEKK1; 100 nM) | % ACTIVITY (MEKK1; 500 nM) | % ACTIVITY (CDK6/Cyclin D3; 100 nM) | % ACTIVITY (CDK6/Cyclin D3; 500 nM) | % ACTIVITY (DAPK1; 100 nM) | % ACTIVITY (DAPK1; 500 nM) | % ACTIVITY (JNK2; 100 nM) | % ACTIVITY (CDK2/Cyclin A1; 100 nM) | % ACTIVITY (CDK1/Cylcin A1; 100 nM) | % ACTIVITY (ASK1; 100 nM) | % ACTIVITY (ASK1; 500 nM) | % ACTIVITY (CDK5/p25; 100 nM) | % ACTIVITY (ROCK1; 100 nM) | other results
O=C1Nc2ccccc2OC1=Cc1cc(Br)c(O)c(Br)c1 [ASK-2a] | 100% | 98% | 104% | 99% | 98% | 95% | 95% | 104% | 101% | 104% | 97% | 100% | 96% | % ACTIVITY (JNK2; 500 nM): 93%; % ACTIVITY (CDK2/Cyclin A1; 500 nM): 100%; % ACTIVITY (GSK3α; 100 nM, 0.1 µM): 71%; % ACTIVITY (GSK3α; [1]): inhibited efficiently; % ACTIVITY (CDK1/Cylcin A1; 500 nM): 88%; % ACTIVITY (CDK5/p25; 500 nM): 96%; % ACTIVITY (p38β; 100 nM, 0.1 µM): 33%; % ACTIVITY (p38β; [1]): inhibited efficiently; % ACTIVITY (ROCK1; 500 nM): 98%
Nc1ccc2c(c1)NC(=O)/C(=C/c1cc(Br)c(O)c(Br)c1)O2 [HSB-13, (Z)-6-amino-2-(3,′5′-dibromo-4′-hydrozybenzylidene)-2H-benzo[b][1,4]oxazin-3(4H)-one] | 99% | 98% | 99% | 89% | 96% | 84% | 98% | 82% | 95% | 104% | 95% | 84% | 91% | % ACTIVITY (GSK3α; 500 nM): 23%; % ACTIVITY (p38β; 500 nM): 10%
